Key:
[1] = system: C. elegans fem-1(hc17) sterile adults; test: Adult survival assay of sterile fem-1(hc17) adults on compound-supplemented medium; assay type: in vivo, Caenorhabditis elegans
Experimental: For survival assays, young adult (day 0) animals were transferred onto fresh medium supplemented with the test compound at a range of concentrations. The compounds were tested at indicated concentrations in the growth medium (below). C. elegans nematodes are surrounded by a thick collagenous cuticle and are therefore relatively impermeable to environmental compounds. […] Survival was scored every 2–3 days as the ability to move in response to a gentle mechanical stimulus. During the first week of adulthood, C. elegans hermaphrodites are reproductively competent and normally produce 200–300 progeny. Since progeny production would complicate survival analysis, these experiments were performed using fem-1(hc17) animals that are sterile due to a spermatogenesis defect.
Resveratrol and picetannol were obtained from commercial sources (Sigma-Aldrich, Inc. and Calbiochem-Novobiochem Corp., respectively). The methoxylated stilbenes pinostilbene, desoxyrhapontigenin, 3-hydroxy-5,4'-dimethoxystilbene and pterostilbene (Figure 1) were synthesized by partial methylation of trans-resveratrol as previously reported. The methoxylated stilbenes were purified by preparative layer chromatography (Merck Silica gel 60 F254; EMD Chemicals Inc., Gibbstown, NJ) using the developing solvent chloroform:methanol (96:4) with 1% formic acid. […] These stilbenes were identified from their ^1H-NMR spectra (Bruker 400 MHz; Bruker, Billerica, MA). All stilbenes were dissolved in ethanol to 25 mg/mL before use. 5-Fluoro-deoxyuracil (Sigma Chemical Co.) was dissolved to 1 mg/mL in sterile water and stored frozen at -20°C until use. For treating C. elegans adults, each compound was added in a 200 μL volume to the top of a 1-day old bacterial lawn grown on NGM medium to final concentrations as indicated. Compounds were allowed 2 hours to diffuse through the agar medium before animals were added.
For survival analyses, synchronized populations of sterile fem-1(hc17) hermaphrodites were obtained by first transferring several fertile hermaphrodites to a fresh plate at 25°C and allowing them to lay eggs for several hours. The parent hermaphrodites were removed and embryos were allowed to develop into sterile adults at 25°C, which takes approximately 48 hours. On the first day of adulthood, referred to as day 0, sterile adults were transferred onto fresh media supplemented with stilbenes at indicated concentrations, and maintained at 25°C. Adult survival was scored every 2–3 days by the animal's ability to move in response to a gentle mechanical stimulus. Statistical analysis of survival was performed using the JMP software package.

cytochrome P450 2E1 = system: cytochrome P450 2E1; design: method as in PMID 16684708; conditions: cited from earlier work
[2] = system: gld-1(q485) germline tumors; test: Germline tumor growth assay (DAPI-stained tumor area); assay type: in vivo, Caenorhabditis elegans; conditions: for effect on tumor size (in words): 100 μM dose
Experimental: To assess the effects of methoxylation on antitumor activity in vivo, tumor area was measured in gld-1(q485) adults treated for four days with either resveratrol trimethylether, desoxyrhapontigenin or pterostilbene, which are methoxylated and toxic to adults, or resveratrol, which is hydroxylated and nontoxic. As controls, germline tumor area was also measured in animals treated with carrier only (ethanol) or with 5-fluoro-2'-deoxyuradine (FUDR), a thymidylate synthetase inhibitor that blocks cell proliferation. […] After four days of treatment, animals were collected and germline tumors were visualized by DAPI staining to visualize germcell nuclei. Because the level of DAPI staining was not quantitative between animals, we DAPI signal intensity was not used as a measure of tumor size. Rather, tumor size was directly measured as the area of the DAPI-stained gonad.
Resveratrol and picetannol were obtained from commercial sources (Sigma-Aldrich, Inc. and Calbiochem-Novobiochem Corp., respectively). The methoxylated stilbenes pinostilbene, desoxyrhapontigenin, 3-hydroxy-5,4'-dimethoxystilbene and pterostilbene (Figure 1) were synthesized by partial methylation of trans-resveratrol as previously reported. The methoxylated stilbenes were purified by preparative layer chromatography (Merck Silica gel 60 F254; EMD Chemicals Inc., Gibbstown, NJ) using the developing solvent chloroform:methanol (96:4) with 1% formic acid. The Rf values for pterostilbene, 3-hydroxy-5,4'-dimethoxystilbene, pinostilbene and desoxyrhapontigenin are 0.61, 0.57, 0.28, and 0.20, respectively. These stilbenes were identified from their ^1H-NMR spectra (Bruker 400 MHz; Bruker, Billerica, MA). All stilbenes were dissolved in ethanol to 25 mg/mL before use. 5-Fluoro-deoxyuracil (Sigma Chemical Co.) was dissolved to 1 mg/mL in sterile water and stored frozen at -20°C until use. For treating C. elegans adults, each compound was added in a 200 μL volume to the top of a 1-day old bacterial lawn grown on NGM medium to final concentrations as indicated. Compounds were allowed 2 hours to diffuse through the agar medium before animals were added.
The gld-1(q485) mutation causes a defect in oocyte development that results in growth of germline tumors that fill the somatic gonad, eventually leading to the animal's death. To examine the effects of the stilbenes on gld-1(q485) germline tumors, day 0 adults were placed on stilbene-containing medium in the presence of OP50 bacteria as food source. After 4 days at 20°C, animals were fixed in methanol and germcell nuclei were visualized by staining with DAPI. Images were collected with the entire animal in view using the 4× objective on a Nikon E800 microscope equipped with a Hamamatsu Orca ER CCD camera using OpenLab imaging software. NIH Image J software was used to measure germline tumor growth in treated and untreated animals. Tumor area was measured by outlining the entire DAPI-stained tumor.

[3] = Trial 1, 100 μM in medium, from day 0 of adulthood, 25°C, control 12.16 days
[4] = Trial 1, 100 μM, treated vs control mean lifespan
[5] = Trial 2, 20 μM, control 11.05 days
[6] = Trial 2, 40 μM, control 11.05 days
[7] = Trial 3, 100 μM, control 15.37 days
[8] = Trial 3, 200 μM, control 15.37 days
[9] = Trial 6, 20 μM, control 15.32 days
[10] = Trial 6, 40 μM, control 15.32 days
[11] = Trial 6, 100 μM, control 15.32 days
[12] = Trial 4, 20 μM, control 11.26 days
[13] = Trial 4, 40 μM, control 11.26 days
[14] = Trial 4, 100 μM, control 11.26 days

SMILES	Mean lifespan, Treated [1, 3] [days]	Relative survival [1, 4] [%]	Relative survival ([1]; Trial 2, 20 μM) [%]	Mean lifespan, Treated [1, 5] [days]	Relative survival ([1]; Trial 2, 40 μM) [%]	Mean lifespan, Treated [1, 6] [days]	Relative survival ([1]; Trial 3, 100 μM) [%]	Mean lifespan, Treated [1, 7] [days]	Relative survival ([1]; Trial 3, 200 μM) [%]	Mean lifespan, Treated [1, 8] [days]	Relative survival ([1]; Trial 6, 20 μM) [%]	Mean lifespan, Treated [1, 9] [days]	Relative survival ([1]; Trial 6, 40 μM) [%]	Mean lifespan, Treated [1, 10] [days]	Relative survival ([1]; Trial 6, 100 μM) [%]	Mean lifespan, Treated [1, 11] [days]	inhibition of catalytic activity of cytochrome P450 2E1 (in words) (cytochrome P450 2E1)	effect on tumor size (in words) ([2]; four days treatment)	Relative survival ([1]; Trial 4, 20 μM) [%]	Mean lifespan, Treated [1, 12] [days]	further results
COc1cc(O)cc(/C=C/c2ccc(O)cc2)c1 [Pinostilbene, pinostilbene]	13.6	112	91	10.04	104	11.53	110	16.9	99	15.23	93	14.24	113	17.33	106	16.24	moderately inhibited	–	–	–	–
COc1ccc(C=Cc2cc(O)cc(OC)c2)cc1 [3-OH-5,4'-dimethoxystilbene, 3-hydroxy-5,4'-dimethoxystilbene]	6.34	52	100	11.05	95	10.52	–	–	–	–	68	10.38	50	7.68	43	6.56	–	–	–	–	–
Oc1cc(O)cc(/C=C/c2ccc(O)c(O)c2)c1 [Piceatannol, piceatannol, reference compound]	–	–	106	11.72	105	11.58	116	17.78	114	17.5	89	13.71	102	15.63	108	16.6	–	–	–	–	–
Oc1ccc(/C=C/c2cc(O)cc(O)c2)cc1 [Resveratrol, resveratrol, reference compound]	12.18	100	107	11.85	95	10.53	108	16.64	111	17	96	14.65	106	16.17	115	17.55	–	–	–	–	effect on germline tumor size vs untreated ([2]; 100 μM in growth medium, four days treatment, FUDR values are single trials): -4%; effect on tumor area (in words) ([2]; 200 and 400 μM dose, three trials): not associated with statistically significant reductions in tumor area
COc1cc(/C=C/c2ccc(O)cc2)cc(OC)c1 [Pterostilbene, pterostilbene]	9.55	79	–	–	–	–	–	–	–	–	90	13.72	94	14.41	72	10.98	–	modestly reduced tumor size	93	10.43	Relative survival ([1]; Trial 4, 40 μM): 89%; Mean lifespan, Treated [1, 13]: 10 days; Relative survival ([1]; Trial 4, 100 μM): 72%; Mean lifespan, Treated [1, 14]: 8.07 days
COc1ccc(/C=C/c2cc(O)cc(O)c2)cc1 [Desoxyrhapontigenin, desoxyrhapontigenin]	10.64	88	–	–	–	–	74	11.31	76	11.61	93	14.18	100	15.31	89	13.63	not inhibitory	consistent reductions in tumor size	91	10.2	Relative survival ([1]; Trial 4, 40 μM): 92%; Mean lifespan, Treated [1, 13]: 10.38 days; Relative survival ([1]; Trial 4, 100 μM): 84%; Mean lifespan, Treated [1, 14]: 9.44 days
